From ChEMBL document CHEMBL1154926, “Cyanolide A, a glycosidic macrolide with potent Molluscicidal activity from the Papua New Guinea cyanobacterium Lyngbya bouillonii” (J Nat Prod, 2010)

Experiments:
N2a = assay: Cytotoxicity against mouse Neuro2a cells at 35 uM; assay type: functional, cell-based
Biomphalaria glabrata = assay: Molluscicidal activity against Biomphalaria glabrata after 24 hrs; assay type: functional
NCI-H460 = assay: Cytotoxicity against human H460 cells at 35 uM; assay type: functional, cell-based
[1] = Toxicity in brine shrimp; assay type: organism-based; settings: artemia, in vivo

## CC[C@@H]1C[C@@H]2C[C@H](O[C@@H]3OC[C@@H](OC)[C@H](OC)[C@H]3OC)C(C)(C)[C@H](CC(=O)O[C@H](CC)C[C@@H]3C[C@H](O[C@@H]4OC[C@@H](OC)[C@H](OC)[C@H]4OC)C(C)(C)[C@H](CC(=O)O1)O3)O2 [CYANOLIDE A]
N2a
  Activity: Not toxic
Biomphalaria glabrata
  LC50: 1.2 µM
NCI-H460
  Activity: Not toxic
[1]
  LC50: 10.8 µM
